Results published in PubChem BioAssay AID1626 (SRMLSC, 2009).

Tested on: M. tuberculosis H37Rv growth inhibition
Experiment: M. tuberculosis H37Rv growth inhibitors, H37Rv strain (AID 1626)
Details: for IC90: measured here: IC90 against H37Rv; for CC50: measured here: Vero cell cytotoxicity

| SMILES | IC50 [µM] | IC90 [µM] | CC50 [µM] |
| --- | --- | --- | --- |
| CCOC(=O)C1(CCc2ccccc2)CCN(Cc2ccccn2)CC1 | 19.7 | > 100 |  |
| COC(=O)C1C2c3ccccc3OC1(C)N=c1s/c(=C/c3cnn(C)c3C)c(=O)n12 (stereo not given) | 2.43 | 17.7 |  |
| CCc1nc(N2CCCC(C)C2)c2oc3ccccc3c2n1 (stereo not given) | 17 | 23.8 | > 40 |
| O=C(CSc1ccc([N+](=O)[O-])cn1)Nc1ccc2c(c1)OCCO2 | 51.3 | > 100 |  |
| COC(=O)C(CC(C)C)NC(=O)/C=C/c1ccccc1Cl (stereo not given) | 4.67 | 7.81 |  |
| O=C(CCCSc1nnc(SCCCC(=O)c2ccc(F)cc2)s1)c1ccc(F)cc1 | 0.516 | 0.654 | 26.4 |
| COC(=O)CSc1ccc2c(N)c(C(=O)OC)sc2c1 | 1.68 | 2.82 |  |
| COc1ccc(NCC(=O)Nc2ccc(C#N)cc2)cc1Cl | 8.28 | > 100 | > 40 |
| CC(=O)Nc1nc(NC(=O)/C=C/c2ccccc2)n(-c2ccccc2)n1 | 3.63 | 8.76 | 27.7 |
| CC1CCN(c2nc(CN3CCCCC3)nc3scc(-c4ccccc4)c23)CC1 | 9.11 | 11.9 | 34.9 |
| COc1ccc(N)cc1-n1cnnn1 |  | > 100 |  |
| COc1ccc(C[C@H]2CN3C(=NC[C@@H]3Cc3ccc(O)cc3)N2C[C@H](C)NC(=O)c2ccc(C)c(Br)c2)cc1 | 6.33 | 9.21 |  |
| COC(=O)COc1ccc2c(=O)c(-c3ccccc3OC)coc2c1 | 3.01 | 5.62 |  |
| COCCN=C1Sc2nc3ccc(C)cc3cc2CN1Cc1cccs1 | 10.6 | 13.8 |  |
| O=C(Nc1ncc(Cc2ccc(C(F)(F)F)cc2)s1)c1ccc(-c2cccc([N+](=O)[O-])c2)o1 | 60.2 | > 100 | > 40 |
| Cc1cc(C)c(C2C3=C(Nc4c2c(C)nn4-c2ccccn2)c2ccccc2C3=O)c(C)c1 (stereo not given) | 5.63 | 8.83 | > 40 |
| O=C(Nc1nnc(-c2ccccc2)o1)c1nc2ccccc2s1 | 6.13 | 13.6 | > 40 |
| Cc1ccc(-c2cc(C(=O)Nc3nccs3)c3ccccc3n2)c(C)c1 | 9.6 | 11.9 | > 40 |
| COC(=O)CSc1ncnc2c1sc1nc3c(cc12)COC(C)(C)C3 | 3.1 | 10 |  |
| CCOC(=O)CNC(=O)CSc1nc(-c2cccc(C)c2)ns1 | 1.5 | 8.29 |  |
| O=C1CCC(=O)N1CNc1ccc(Oc2ccccc2)cc1 | 2.58 | > 100 |  |

| SMILES | IC50 [µM] | IC90 [µM] | CC50 [µM] |
| --- | --- | --- | --- |
| CN1CCN(c2nc(-c3ccccc3)nc3c2oc2ccccc23)CC1 | 5.55 | 10.5 | 30 |
| COc1ccc(NC(=O)COc2ccc3c(c2)CCC3)cc1 | 16.4 | > 100 |  |
| O=c1[nH]c(-c2ccccn2)nc2sc(-c3ccccc3)cc12 | < 0.391 | 0.553 | 2.2 |
| Cc1cc(=O)oc2ccc(OC(=O)CC(C)C)cc12 |  | > 100 |  |
| Cc1ccc2nc(/C(C#N)=C\c3ccc(OC(=O)c4cccs4)cc3)[nH]c2c1 | 20.4 | > 100 | 22.9 |
| Cc1ccc(-c2noc(CCC(=O)NCCCN3CCN(c4cccc(Cl)c4)CC3)n2)cc1 | 9.9 | 13.2 | > 40 |
| CCOc1ccc2nc(SCC(=O)Nc3ccc4c(c3)OCO4)sc2c1 | 25 | > 100 |  |
| CCOC(=O)c1ccc(NCc2ccc(N(C)C)cc2)cc1 |  | > 100 |  |
| CCOc1ccc(NC(=O)N(C2CCCCC2)C2CCN(C(C)=O)CC2)cc1 |  | > 100 |  |
| Nc1ccc(-n2ccnc2)cc1 | 41 | > 100 |  |
| COc1ccc2[nH]c(=O)c(CN(C(=O)NC3CCCCC3)C3CCCCC3)cc2c1 |  | > 100 | > 40 |
| Cn1c(NCc2ccccc2)nc2c1c(=O)n(Cc1ccc(Br)cc1)c(=O)n2C | 13.8 | > 100 | > 40 |
| Cc1ccc(-c2nc(NCc3ccco3)c3ccccc3n2)cc1 | 9.38 | 16.2 | > 40 |
| N#CC(C#N)=c1ccc2c(c1)N1C(c3ccccc3)=CC(c3ccccc3)C3CCCCC31N=2 (stereo not given) | 28.3 | > 100 |  |
| COCc1ccc(O)c2ncccc12 | 10.9 | 12 | 9.76 |
| COc1ccc(Nc2cc(C)nc(-n3nc(C)cc3C)n2)cc1 | 6.15 | > 100 | > 40 |
| O=C(Nc1nc2ccccc2[nH]1)c1cccc([N+](=O)[O-])c1 |  | > 100 |  |
| CC(C)COC(=O)c1ccc2c(c1O)C(=O)c1ccccc1C2=O | 2.51 | 4.11 | 27.8 |
| O=C(C1CCN(c2nnc(-n3cccc3)s2)CC1)N1CCN(c2cccc(C(F)(F)F)c2)CC1 | 0.258 | 1.05 | > 40 |
| O=C(CCC(=O)OCc1ccc(C(=O)Oc2ccccc2)cc1)Nc1cccc2ccccc12 | 7.06 | 10.1 | > 40 |
| CCCCOC(=O)c1ccc(OC(=O)c2cccnc2)cc1 | 7.04 | > 100 | > 40 |
